“Also recorded” adds a separate entry of the source. Ends that are not written are not given here.
Columns and labels:
[1] = target: T1, human DPEP2 (Homo sapiens, UniProt Q9H4A9); assay: Immunofluorescence binding to Cos-1 cells transfected with human DPEP2; details: Alexa-488 conjugate
T1 construct: expressed in transfected cells; host or cells: Cos-1
Method: Cos-1 cells were transiently transfected with either 3 μg of human DPEP-1, DPEP2, or DPEP3 gene using Lipofectamine 2000 (Invitrogen) reagent in OptiMEM medium. 24 hours after transfection, DPEP-1, DPEP2, or DPEP3 expressing cells were re-seeded on collagen coated (neutralized) wells in 24 well plates and allowed to grow for 24 hours at 37° C. […] Cells were blocked with FBS/NBSA/Tween in PBS for 30 minutes on ice. Cells were then washed with PBS and incubated with LSALT or GFE-1, conjugated with Alexa-488 (green). After incubation, cells were washed with PBS and stained with DAPI for 5 minutes on ice. Cells were then washed with PBS and fixed using 4% paraformaldehyde and immunofluorescence microscopy was performed to assess binding. Representative photomicrographs are shown for each experimental condition (n=3) in FIG. 6A. Proteins from DPEP-1, DPEP2 and DPEP3 transfected cells were isolated after 48 hours using octyl-glucoside/RIPA lysis buffer and western blot analysis was performed to assess DPEP-1, DPEP2 and DPEP3 protein expression using specific antibodies; DPEP-1 antibody (Sigma), DPEP2 (Abcam) and DPEP3 (Santacruz). Blots were stripped and reprobed with an anti-β-actin.

[2] = system: neutrophil adhesion in the hepatic sinusoids; assay: Neutrophil adhesion in hepatic sinusoids after LPS, intravital microscopy; format: in vivo, mouse; details: LysM gfp mice, LPS 0.5 mg/kg i.p., peptide 1 mM i.v.
Method: Six to ten week old LysM^(gfp) mice were injected with 1 mM dose of LSALT or 1KGAL (control) (intravenous) 5 minutes after the injection of 0.5 mg/kg of lipopolysaccharide (intraperitoneal). After 3 hours, animals were injected with ketamine and xylazine to provide general anesthesia. Fluorescently conjugated F4/80 and PECAM-1 antibodies were then administered via jugular vein cannulation and intravital spinning disk confocal microscopy was performed. The livers were imaged for an hour and the number of neutrophils were counted at different time points. Neutrophils which were stationary for ≥30 seconds in the liver sinusoids were counted as adherent cells. Data are representative of three independent experiments. An unpaired 2-tailed student's t-test was performed comparing LSALT, […] control treated group against the LPS treated group (*p<0.05).

[3] = target: T2, DPEP1 (Homo sapiens, UniProt P16444); assay: Immunofluorescence binding of Alexa-488 conjugated peptides to Cos-1 cells transfected with human DPEP-1; parameters: expressed in transfected cells; host or cells: Cos-1; details: Alexa-488 conjugate, on ice 30 minutes
T2 sequence (P16444 17-385): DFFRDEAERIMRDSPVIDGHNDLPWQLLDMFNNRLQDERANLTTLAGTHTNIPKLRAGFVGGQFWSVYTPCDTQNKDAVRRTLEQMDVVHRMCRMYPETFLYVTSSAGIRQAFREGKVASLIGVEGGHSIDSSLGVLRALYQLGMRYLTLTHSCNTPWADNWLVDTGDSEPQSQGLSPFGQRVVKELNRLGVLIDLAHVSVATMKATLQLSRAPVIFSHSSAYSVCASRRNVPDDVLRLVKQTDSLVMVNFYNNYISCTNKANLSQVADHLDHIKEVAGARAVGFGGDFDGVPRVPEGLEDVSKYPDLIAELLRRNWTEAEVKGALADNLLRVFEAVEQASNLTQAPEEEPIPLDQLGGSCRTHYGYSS
Method: 24 hours after transfection, DPEP-1 expressing cells weer reseeded on 24 well collagen coated (neutralized) plates and allowed to grow for 24 hours at 37° C. […] Cells were blocked with FBS/NBSA/Tween in PBS for 30 minutes on ice. Cells were then washed with PBS and incubated with Alexa-488 (green) conjugated LSALT, GFE-1, control peptide or DPEP-1 antibody ( 1/100) (Sigma) on ice for 30 minutes. After incubation, cells were washed with PBS and stained with DAPI for 4 minutes on ice. Cells were again washed with PBS, fixed using 4% paraformaldehyde and immunofluoresence microscopy was performed to assess binding. Proteins from human DPEP-1 transfected cells were isolated after 48 hours using octyl-glucoside/RIPA in the absence of protease inhibitors. […] Values shown are the mean ±s.e.m. from six independent experiments; asterisks (***) indicate P<0.001 as compared with DPEP-1 transfected cells (one-way ANOVA with the Neuman-Keuls post-test)[…]. Proteins from transfected cells were isolated after 48 hours using octyl-glucoside/RIPA lysis buffer and western blot analysis was performed to assess DPEP-1 expression using DPEP-1 antibody (Sigma). […]

[4] = target: T2, DPEP1; assay: Biotin transfer, neutravidin precipitation and DPEP1 western blot; format: binding; parameters: expressed in transfected cells; host or cells: Cos-1; details: 10 mg/ml biotin transfer peptide, UV activation
Method: Cos-1 cells were transiently transfected with either 3 or 5 μg of membrane dipeptidase (DPEP-1) cDNA corresponding to the rat (Shown in FIG. 5A), human (Shown in FIG. 5B), or canine (Shown in FIG. 5E) DPEP-1 gene using Lipofectamine 2000 (Invitrogen) reagent in OptiMEM medium. 24 hours after transfection, DPEP-1 expresisng cells were re-seeded on collagen coated (neutralized) wells in 24 well plates and allowed to grow for 24 hours at 37° C. […] Cells were blocked with FBS/NBSA/Tween in PBS for 30 minutes on ice. Cells were then washed with PBS and incubated with Alexa-488 (green) conjugated LSALT, GFE-1, control peptide or DPEP-1 antibody ( 1/100) (Sigma) on ice for 30 minutes. […] After incubation, cells were washed with PBS and treated with 10 mg/ml biotin transfer peptide (LSALT, GFE-1 or Control Peptide (KGAL)] for 10 minutes. Cells were then washed with PBS and biotin transfer was enabled by UV activation of the aryl azide groups for 15 minutes at 363 nm. Residual fluid was removed and monolayers were lysed either with octyl-glucoside/RIPA or 8M urea. Isolated supernatants were rotated with 50 μl of neutr-avidin agarose beads at 4° C. for 24 hours. Beads were washed with corresponding buffers, boiled in Laemmli buffer and analyzed by western blot using a DPEP-1 specific antibody (Proteintech).

T1 sequence (Q9H4A9 33-463): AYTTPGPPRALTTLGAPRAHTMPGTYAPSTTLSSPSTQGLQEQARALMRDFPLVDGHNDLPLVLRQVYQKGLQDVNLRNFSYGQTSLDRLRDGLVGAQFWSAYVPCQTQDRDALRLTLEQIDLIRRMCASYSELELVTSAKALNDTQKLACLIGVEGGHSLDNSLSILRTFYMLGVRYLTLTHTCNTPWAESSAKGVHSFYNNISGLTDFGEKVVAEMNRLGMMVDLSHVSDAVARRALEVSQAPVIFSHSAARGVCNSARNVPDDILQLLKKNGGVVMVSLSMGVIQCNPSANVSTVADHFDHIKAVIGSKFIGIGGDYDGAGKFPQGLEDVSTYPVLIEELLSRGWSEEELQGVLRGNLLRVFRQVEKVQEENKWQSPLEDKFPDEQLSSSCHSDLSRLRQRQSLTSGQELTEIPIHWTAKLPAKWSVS

binding to human DPEP2 transfected Cos-1 cells [1]: does not Bind
interaction with DPEP1 by biotin transfer [4]: able to interact with DPEP1
Substance: H-LSALTPSPSWLKYKAL [LSALT]
neutrophil adhesion in the hepatic sinusoids [2]: inhibits neutrophil adhesion in the hepatic sinusoids
binding of fluorescently labelled peptide to human DPEP-1 transfected Cos-1 cells [3]: Binds; also recorded: Fluorescent peptide binding is only seen with DPEP1 transfection

— US11286278B2, “DPEP-1 binding agents and methods of use” (Arch Biopartners, Inc., priority 2018, dated 2022)
